Assay results taken from PubChem BioAssay (NCI).
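Where inhibition never reached the appropriate level, the endpoint shown equals the highest concentration tested. Otherwise, values were interpolated linearly from a five-concentration, 48-hour dose response in 96-well plates. GI50 = concentration required for 50% inhibition of growth. TGI is the concentration that stops growth completely.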

Columns and labels:
Assay in all cases: DTP human tumour cell line panel, 48 h
PC-3 prostate = system: PC-3 prostate
RPMI-8226 leukemia = system: RPMI-8226 leukemia
SNB-75 CNS = system: SNB-75 CNS
OVCAR-3 ovarian = system: OVCAR-3 ovarian
A549 NSCLC = system: A549 NSCLC
M14 melanoma = system: M14 melanoma
HCT-116 colon = system: HCT-116 colon
LOX IMVI melanoma = system: LOX IMVI melanoma
UACC-62 melanoma = system: UACC-62 melanoma
SF-539 CNS = system: SF-539 CNS
786-0 renal = system: 786-0 renal
T-47D breast = system: T-47D breast
HT29 colon = system: HT29 colon
NCI-H226 lung = system: NCI-H226 lung
HCT-15 colon = system: HCT-15 colon
OVCAR-5 ovarian = system: OVCAR-5 ovarian
ACHN renal = system: ACHN renal
SK-OV-3 ovarian = system: SK-OV-3 ovarian
NCI-H23 lung = system: NCI-H23 lung
UO-31 renal = system: UO-31 renal
MCF7 breast = system: MCF7 breast
OVCAR-4 ovarian = system: OVCAR-4 ovarian
NCI-H522 lung = system: NCI-H522 lung
COLO 205 colon = system: COLO 205 colon
IGROV1 ovarian = system: IGROV1 ovarian
MDA-MB-435 = system: MDA-MB-435
SR leukemia = system: SR leukemia
SK-MEL-2 melanoma = system: SK-MEL-2 melanoma
OVCAR-8 ovarian = system: OVCAR-8 ovarian
MDA-MB-231 breast = system: MDA-MB-231 breast
MALME-3M melanoma = system: MALME-3M melanoma
MOLT-4 leukemia = system: MOLT-4 leukemia
NCI/ADR-RES ovarian = system: NCI/ADR-RES ovarian
CAKI-1 renal = system: CAKI-1 renal
UACC-257 melanoma = system: UACC-257 melanoma
DU-145 prostate = system: DU-145 prostate
SNB-19 CNS = system: SNB-19 CNS
HS 578T breast = system: HS 578T breast
SK-MEL-5 melanoma = system: SK-MEL-5 melanoma
SW-620 colon = system: SW-620 colon
NCI-H460 lung = system: NCI-H460 lung
KM12 colon = system: KM12 colon
HL-60(TB) leukemia = system: HL-60(TB) leukemia
U251 CNS = system: U251 CNS
SF-295 CNS = system: SF-295 CNS
A498 renal = system: A498 renal
SK-MEL-28 melanoma = system: SK-MEL-28 melanoma
CCRF-CEM leukemia = system: CCRF-CEM leukemia
HCC-2998 colon = system: HCC-2998 colon
BT-549 breast = system: BT-549 breast
HOP-62 NSCLC = system: HOP-62 NSCLC
K-562 leukemia = system: K-562 leukemia
HOP-92 NSCLC = system: HOP-92 NSCLC
TK-10 renal = system: TK-10 renal
SF-268 CNS = system: SF-268 CNS
SN12C renal = system: SN12C renal

For `CO[C@H]1/C=C/O[C@@]2(C)Oc3c(C)c(O)c4c(c3C2=O)C(=O)C(/C=N/N(c2ccccc2)c2ccccc2)=C(NC(=O)/C(C)=C\C=C\[C@H](C)[C@H](O)[C@@H](C)[C@@H](O)[C@@H](C)[C@H](OC(C)=O)[C@@H]1C)C4=O`, the GI50 (PC-3 prostate) was 1.32 µM, the TGI (PC-3 prostate) was 2.82 µM and the GI50 (RPMI-8226 leukemia) was 1.43 µM. For the same compound, the TGI (RPMI-8226 leukemia) was 4.31 µM, the GI50 (SNB-75 CNS) was 1.38 µM and the TGI (SNB-75 CNS) was 2.72 µM. The GI50 (OVCAR-3 ovarian) was 1.84 µM, the TGI (OVCAR-3 ovarian) was 3.34 µM and the GI50 (A549 NSCLC) was 1.69 µM. For the same compound, the TGI (A549 NSCLC) was 3.29 µM, the GI50 (M14 melanoma) was 1.79 µM and the TGI (M14 melanoma) was 3.49 µM. For the same compound, the GI50 (HCT-116 colon) was 1.47 µM, the TGI (HCT-116 colon) was 2.96 µM and the GI50 (LOX IMVI melanoma) was 1.95 µM. For the same compound, the TGI (LOX IMVI melanoma) was 3.79 µM, the GI50 (UACC-62 melanoma) was 1.51 µM and the TGI (UACC-62 melanoma) was 2.92 µM. It also gave a GI50 (SF-539 CNS) of 1.8 µM, a TGI (SF-539 CNS) of 3.56 µM and a GI50 (786-0 renal) of 1.83 µM. For the same compound, the TGI (786-0 renal) was 3.44 µM, the GI50 (T-47D breast) was 1.84 µM and the TGI (T-47D breast) was 3.85 µM. For the same compound, the GI50 (HT29 colon) was 1.93 µM, the TGI (HT29 colon) was 3.84 µM and the GI50 (NCI-H226 lung) was 1.97 µM. The TGI (NCI-H226 lung) was 3.98 µM, the GI50 (HCT-15 colon) was 1.63 µM and the TGI (HCT-15 colon) was 3.4 µM. It also gave a GI50 (OVCAR-5 ovarian) of 1.83 µM, a TGI (OVCAR-5 ovarian) of 3.72 µM and a GI50 (ACHN renal) of 1.74 µM. It also gave a TGI (ACHN renal) of 3.28 µM, a GI50 (SK-OV-3 ovarian) of 1.81 µM and a TGI (SK-OV-3 ovarian) of 3.28 µM. The GI50 (NCI-H23 lung) was 2.44 µM, the TGI (NCI-H23 lung) was 5.1 µM and the GI50 (UO-31 renal) was 1.65 µM. It also gave a TGI (UO-31 renal) of 3.21 µM, a GI50 (MCF7 breast) of 1.95 µM and a TGI (MCF7 breast) of 4.23 µM. The GI50 (OVCAR-4 ovarian) was 1.65 µM, the TGI (OVCAR-4 ovarian) was 3.15 µM and the GI50 (NCI-H522 lung) was 1.72 µM. The TGI (NCI-H522 lung) was 3.42 µM, the GI50 (COLO 205 colon) was 1.75 µM and the TGI (COLO 205 colon) was 3.46 µM. For the same compound, the GI50 (IGROV1 ovarian) was 2.13 µM, the TGI (IGROV1 ovarian) was 4.23 µM and the GI50 (MDA-MB-435) was 1.68 µM. The TGI (MDA-MB-435) was 3.09 µM, the GI50 (SR leukemia) was 2.43 µM and the TGI (SR leukemia) was 5.77 µM. It also gave a GI50 (SK-MEL-2 melanoma) of 1.86 µM, a TGI (SK-MEL-2 melanoma) of 3.6 µM and a GI50 (OVCAR-8 ovarian) of 1.99 µM. The TGI (OVCAR-8 ovarian) was 4.21 µM, the GI50 (MDA-MB-231 breast) was 1.7 µM and the TGI (MDA-MB-231 breast) was 3.35 µM. The GI50 (MALME-3M melanoma) was 1.89 µM, the TGI (MALME-3M melanoma) was 3.59 µM and the GI50 (MOLT-4 leukemia) was 1.85 µM. The TGI (MOLT-4 leukemia) was 6.07 µM, the GI50 (NCI/ADR-RES ovarian) was 2.4 µM and the TGI (NCI/ADR-RES ovarian) was 5.31 µM. The GI50 (CAKI-1 renal) was 1.72 µM, the TGI (CAKI-1 renal) was 3.38 µM and the GI50 (UACC-257 melanoma) was 1.84 µM. For the same compound, the TGI (UACC-257 melanoma) was 3.9 µM, the GI50 (DU-145 prostate) was 1.93 µM and the TGI (DU-145 prostate) was 3.51 µM. The GI50 (SNB-19 CNS) was 1.71 µM, the TGI (SNB-19 CNS) was 3.27 µM and the GI50 (HS 578T breast) was 2.04 µM. The TGI (HS 578T breast) was 5.39 µM, the GI50 (SK-MEL-5 melanoma) was 1.64 µM and the TGI (SK-MEL-5 melanoma) was 3.02 µM. For the same compound, the GI50 (SW-620 colon) was 1.83 µM, the TGI (SW-620 colon) was 3.61 µM and the GI50 (NCI-H460 lung) was 1.77 µM. The TGI (NCI-H460 lung) was 3.44 µM, the GI50 (KM12 colon) was 1.75 µM and the TGI (KM12 colon) was 3.24 µM. The GI50 (HL-60(TB) leukemia) was 2.17 µM, the TGI (HL-60(TB) leukemia) was 4.7 µM and the GI50 (U251 CNS) was 1.86 µM. It also gave a TGI (U251 CNS) of 3.4 µM, a GI50 (SF-295 CNS) of 1.59 µM and a TGI (SF-295 CNS) of 3 µM. The GI50 (A498 renal) was 1.43 µM, the TGI (A498 renal) was 2.84 µM and the GI50 (SK-MEL-28 melanoma) was 1.71 µM. It also gave a TGI (SK-MEL-28 melanoma) of 3.36 µM, a GI50 (CCRF-CEM leukemia) of 1.83 µM and a TGI (CCRF-CEM leukemia) of 4.84 µM. For the same compound, the GI50 (HCC-2998 colon) was 2.07 µM, the TGI (HCC-2998 colon) was 4.08 µM and the GI50 (BT-549 breast) was 1.61 µM. The TGI (BT-549 breast) was 3.06 µM, the GI50 (HOP-62 NSCLC) was 1.71 µM and the TGI (HOP-62 NSCLC) was 3.17 µM. It also gave a GI50 (K-562 leukemia) of 2.69 µM, a TGI (K-562 leukemia) of 9.36 µM and a GI50 (HOP-92 NSCLC) of 1.88 µM. For the same compound, the TGI (HOP-92 NSCLC) was 3.52 µM, the GI50 (TK-10 renal) was 1.87 µM and the TGI (TK-10 renal) was 3.55 µM. It also gave a GI50 (SF-268 CNS) of 1.79 µM, a TGI (SF-268 CNS) of 3.37 µM and a GI50 (SN12C renal) of 1.82 µM. The TGI (SN12C renal) was 3.33 µM.
